Measurements published in US20230295182A1, “SPIRO DERIVATIVES OF ALPHA-D-GALACTOPYRANOSIDES” (Idorsia Pharmaceuticals Ltd, priority 2020, published 2023).

What was measured:
human Gal-3 (hGal-3) = human Gal-3 (hGal-3) (Homo sapiens (Human), UniProt P17931); assay: Competitive binding assay: biotinylated hGal-3 to microplate-adsorbed asialofetuin (ASF); details: Activity on hGal-3; binding to ASF-coated plates, 3 hours at 4° C.; mean values
Experimental: Evaluation of Compound Inhibitory Activity (IC50)
The inhibitory activity of compounds is determined in competitive binding assays. This spectrophotometric assay measures the binding of biotinylated human Gal-3 (hGal-3) or human Gal-1 (hGal-1), respectively, to a microplate-adsorbed glycoprotein, asialofetuin (ASF) (Proc Natl Acad Sci USA. 2013 Mar. 26; 110(13):5052-7.). Alternatively, and preferably, a human Gal-1 version in which all six cysteines are substituted by serines may be used.
Briefly, compounds are serially diluted in DMSO (working dilutions). ASF-coated 384 well plates are supplemented with 22.8 μL/well of biotinylated hGal-3 or hGal-1 in assay buffer (i.e. 300-1000 ng/mL biotinylated hGal-3 or hGal-1) to which 1.2 µL of compound working dilutions are added and mixed.
Plates are incubated for 3 hours at 4° C., then washed with cold assay buffer (3×50 uL), incubated for 1 hour with 25 μL/well of a streptavidin-peroxidase solution (diluted in assay buffer to 80 ng/mL) at 4° C., followed by further washing steps with assay buffer (3×50 uL). Finally, 25 µL/well of ABTS substrate is added.
The calculated IC50 values may fluctuate depending on the daily assay performance. Fluctuations of this kind are known to those skilled in the art. IC50 values from several measurements are given as mean values.

human Gal-1 (hGal-1) = human Gal-1 (hGal-1) (Homo sapiens, UniProt P09382); assay: Competitive binding assay: biotinylated hGal-1 to microplate-adsorbed asialofetuin (ASF); details: Activities on hGal-1; binding to ASF-coated plates, 3 hours at 4° C.; mean values; read-out: Gal-1 IC50
Chain of human Gal-1 (hGal-1) (P09382 2-135 limits assumed): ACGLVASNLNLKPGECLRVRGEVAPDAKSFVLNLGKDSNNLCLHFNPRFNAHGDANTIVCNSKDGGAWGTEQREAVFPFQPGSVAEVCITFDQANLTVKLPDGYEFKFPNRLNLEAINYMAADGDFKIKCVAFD
Experimental: Evaluation of Compound Inhibitory Activity (IC50) The inhibitory activity of compounds is determined in competitive binding assays. […] Alternatively, and preferably, a human Gal-1 version in which all six cysteines are substituted by serines may be used. Briefly, compounds are serially diluted in DMSO (working dilutions). […] Plates are incubated for 3 hours at 4° C., then washed with cold assay buffer (3×50 uL), incubated for 1 hour with 25 μL/well of a streptavidin-peroxidase solution (diluted in assay buffer to 80 ng/mL) at 4° C., followed by further washing steps with assay buffer (3×50 uL). Finally, 25 µL/well of ABTS substrate is added. […] The calculated IC50 values may fluctuate depending on the daily assay performance. Fluctuations of this kind are known to those skilled in the art. IC50 values from several measurements are given as mean values.

Chain of human Gal-3 (hGal-3) (P17931 whole entry): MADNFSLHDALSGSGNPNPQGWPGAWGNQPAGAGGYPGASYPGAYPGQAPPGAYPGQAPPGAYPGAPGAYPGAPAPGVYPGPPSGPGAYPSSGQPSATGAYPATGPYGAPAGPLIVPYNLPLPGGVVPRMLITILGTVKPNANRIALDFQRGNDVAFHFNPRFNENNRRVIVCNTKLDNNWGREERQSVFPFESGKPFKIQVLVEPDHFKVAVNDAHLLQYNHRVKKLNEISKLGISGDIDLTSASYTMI

| SMILES | IC50 (human Gal-3 (hGal-3)) [nM] | IC50 (human Gal-1 (hGal-1)) [nM] |
| --- | --- | --- |
| CO[C@@H]1[C@@H](n2cc(-c3cc(F)c(F)c(F)c3)nn2)[C@@H](O)[C@@H](CO)O[C@@H]1CC1=NOC2(CCCCC2)C1 [Example 1.08, (2R,3R,4S,5R,6R)-6-((1-oxa-2-azaspiro[4.5]dec-2-en-3-yl)methyl)-2-(hydroxymethyl)-5-methoxy-4-(4-(3,4,5-trifluorophenyl)-1H-1,2,3-triazol-1-yl)tetrahydro-2H-pyran-3-ol] | 240 | 1900 |
| CO[C@@H]1[C@@H](n2cc(-c3cc(F)c(F)c(F)c3)nn2)[C@@H](O)[C@@H](CO)O[C@@H]1CC1=NOC2(CCCC2)C1 [Example 1.09, (2R,3R,4S,5R,6R)-6-((1-oxa-2-azaspiro[4.4]non-2-en-3-yl)methyl)-2-(hydroxymethyl)-5-methoxy-4-(4-(3,4,5-trifluorophenyl)-1H-1,2,3-triazol-1-yl)tetrahydro-2H-pyran-3-ol] | 950 | 2700 |
| CO[C@@H]1[C@@H](n2cc(-c3cc(F)c(F)c(F)c3)nn2)[C@@H](O)[C@@H](CO)O[C@@H]1CC1=NOC2(CCC2)C1 [Example 1.10, (2R,3R,4S,5R,6R)-6-((5-oxa-6-azaspiro[3.4]oct-6-en-7-yl)methyl)-2-(hydroxymethyl)-5-methoxy-4-(4-(3,4,5-trifluorophenyl)-1H-1,2,3-triazol-1-yl)tetrahydro-2H-pyran-3-ol] | 620 | 2200 |
| CO[C@@H]1[C@@H](n2cc(-c3cc(F)c(F)c(F)c3)nn2)[C@@H](O)[C@@H](CO)O[C@@H]1CC1=NOC2(CCC(NC(=O)OC(C)(C)C)CC2)C1 (stereo partly drawn) [Example 1.11, tert-butyl (3-(((2R,3R,4S,5R,6R)-5-hydroxy-6-(hydroxymethyl)-3-methoxy-4-(4-(3,4,5-trifluorophenyl)-1H-1,2,3-triazol-1-yl)tetrahydro-2H-pyran-2-yl)methyl)-1-oxa-2-azaspiro[4.5]dec-2-en-8-yl)carbamate] | 69 | 1500 |
| CO[C@@H]1[C@@H](n2cc(-c3ccc(Cl)c(F)c3)nn2)[C@@H](O)[C@@H](CO)O[C@@H]1CC1=NOC2(CCCCC2)C1 [Example 1.12, (2R,3R,4S,5R,6R)-6-((1-oxa-2-azaspiro[4.5]dec-2-en-3-yl)methyl)-4-(4-(4-chloro-3-fluorophenyl)-1H-1,2,3-triazol-1-yl)-2-(hydroxymethyl)-5-methoxytetrahydro-2H-pyran-3-ol] | 310 | 1100 |
| CO[C@@H]1[C@@H](n2cc(-c3ccc(F)c(F)c3F)nn2)[C@@H](O)[C@@H](CO)O[C@@H]1CC1=NOC2(CCCCC2)C1 [Example 1.13, (2R,3R,4S,5R,6R)-6-((1-oxa-2-azaspiro[4.5]dec-2-en-3-yl)methyl)-2-(hydroxymethyl)-5-methoxy-4-(4-(2,3,4-trifluorophenyl)-1H-1,2,3-triazol-1-yl)tetrahydro-2H-pyran-3-ol] | 140 | 520 |
| CO[C@@H]1[C@@H](n2cc(-c3ccc(C)c(F)c3F)nn2)[C@@H](O)[C@@H](CO)O[C@@H]1CC1=NOC2(CCCCC2)C1 [Example 1.14, (2R,3R,4S,5R,6R)-6-((1-oxa-2-azaspiro[4.5]dec-2-en-3-yl)methyl)-4-(4-(2,3-difluoro-4-methylphenyl)-1H-1,2,3-triazol-1-yl)-2-(hydroxymethyl)-5-methoxytetrahydro-2H-pyran-3-ol] | 78 | 2100 |
| CO[C@@H]1[C@@H](n2cc(-c3cc(F)c(F)c(F)c3)nn2)[C@@H](O)[C@@H](CO)O[C@@H]1CC1=NO[C@]2(CC[C@H](NC(=O)OC(C)(C)C)CC2)C1 [Example 1.15, tert-butyl ((5r,8R)-3-(((2R,3R,4S,5R,6R)-5-hydroxy-6-(hydroxymethyl)-3-methoxy-4-(4-(3,4,5-trifluorophenyl)-1H-1,2,3-triazol-1-yl)tetrahydro-2H-pyran-2-yl)methyl)-1-oxa-2-azaspiro[4.5]dec-2-en-8-yl)carbamate] | 35 | 1100 |
